Columns and labels:
[1] = tested on: type 1 diabetes patients with peripheral neuropathy; settings: in vivo
Source text: (§1) The safety measurements comprised collection of AEs, spontaneously reported by the patient or recorded by the investigator at each clinical visit.
(§2) An AE was classified as “unexpected event” (i.e., if not specifically listed in the Investigator's Brochure) in terms of nature, severity, or frequency. All AEs, including intercurrent illnesses and increased severity or frequency of sign/symptoms of a concomitant disease was reported and documented as described below. AEs were documented on an “Adverse Event/Serious Adverse Event” page of the CRF and in the patient's medical records. Any AE occurring at any time after the end of the study, considered to be caused by the study medication—and therefore a possible adverse drug reaction—was reported to the sponsor.
(§3) Hypoglycemic events are common events in insulin-treated patients. For practical reasons only severe hypoglycemic events, i.e., if the patient required assistance from another person in order to regain normoglycaemia, were reported as an AE.
(§4) The period of observation for AEs extended from the time the patient started on trial medication until end of the study. AEs were divided into the categories “serious” and “non-serious”. This determined the procedure used to report/document the AE.
(§5) Descriptive statistics were used for safety variables. […] The safety analysis set included all patients who obtained at least one dose of the investigational drug. AEs were coded according to the MedDRA dictionary. The frequencies of AEs are tabulated by body system and included/preferred term.

[2] = tested on: type 1 diabetes patients with peripheral neuropathy; experiment: ECG and vital signs; assay type: in vivo, human; settings: for BPd (diastolic blood pressure) change, mean ± SD / BPd (diastolic blood pressure) change, median / BPs (systolic blood pressure) change, mean ± SD / BPs (systolic blood pressure) change, median / Heart rate change, mean ± SD / Heart rate change, median / QTc-interval Bazett change, mean ± SD / QTc-interval Bazett change, median / QTc-interval Fredericia change, mean ± SD / QTc-interval Fredericia change, median: baseline to 6 months (visit 4), PP data set
Experimental: ECG was performed at baseline and at end of study, i.e., visit 4 (at 6 months±2 weeks from the S/B visit).

[3] = tested on: type 1 diabetes patients with peripheral neuropathy; experiment: Adverse events
Source text: as §1, §2, §3, §4, §5

[4] = C-peptide concentrations in plasma (time-resolved fluoroimmunoassay); settings: dose ranges of the study; very small patient number
Experimental: Blood samples for determination of C-peptide in plasma were drawn at the S/B visit, visit 2, and at end of study (visit 4).
The sampling of C-peptide in plasma at visits 2 and 4 coincided with the clinical visit and the time between the most recent administration of the trial drug and sampling varied between patients.
C-peptide plasma levels were measured at baseline, and after 3 and 6 months of treatment. Analysis was performed by the Department of Clinical Chemistry Karolinska University Hospital, Solna using a time-resolved fluoroimmunoassay (AutoDelfia, Wallac Oy, Turku, Finland).
C-peptide plasma levels were also measured pre-dosing in the morning in 22 randomly selected patients at the Karolinska Hospital after 4.5 months of study treatment (visit 3).

[5] = high-dose C-peptide, treatment emergent, any severity, PP data set
[6] = low-dose C-peptide, treatment emergent, any severity, PP data set

**Q.** With `CC(C)C[C@H](NC(=O)[C@H](C)NC(=O)[C@H](CC(C)C)NC(=O)[C@@H]1CCCN1C(=O)[C@H](CCC(N)=O)NC(=O)[C@H](CC(C)C)NC(=O)[C@H](CO)NC(=O)CNC(=O)[C@H](C)NC(=O)CNC(=O)[C@@H]1CCCN1C(=O)CNC(=O)CNC(=O)CNC(=O)[C@H](CC(C)C)NC(=O)[C@H](CCC(=O)O)NC(=O)[C@@H](NC(=O)[C@H](CCC(N)=O)NC(=O)CNC(=O)[C@@H](NC(=O)[C@H](CCC(N)=O)NC(=O)[C@H](CC(C)C)NC(=O)[C@H](CC(=O)O)NC(=O)[C@H](CCC(=O)O)NC(=O)[C@H](C)NC(=O)[C@@H](N)CCC(=O)O)C(C)C)C(C)C)C(=O)N[C@@H](CCC(=O)O)C(=O)NCC(=O)N[C@@H](CO)C(=O)N[C@@H](CC(C)C)C(=O)N[C@@H](CCC(N)=O)C(=O)O` [C-peptide, Recombinant human C-peptide] as the compound, how does the “Acute HIV infection, AE intensity (number of AE incidences)” value [1] read?
**A.** M (1)

**Q.** And the “Herpes zoster, AE intensity (number of AE incidences)” value [1]?
**A.** M (1)

**Q.** And the “Decrease in systolic blood pressure, high-dose vs low-dose group” value ([2]; 6 months, p<0.004, not statistically different from placebo)?
**A.** significantly greater decrease

**Q.** What about the “BPd (diastolic blood pressure) change, mean ± SD” value ([2]; high-dose C-peptide) of the same compound?
**A.** −2.6 ± 8.0 mmHg

**Q.** And the “BPd (diastolic blood pressure) change, median” value ([2]; high-dose C-peptide)?
**A.** −1.0 mmHg

**Q.** What about the “BPs (systolic blood pressure) change, mean ± SD” value ([2]; high-dose C-peptide) of the same compound?
**A.** −8.8 ± 10.0 mmHg

**Q.** What about the “BPs (systolic blood pressure) change, median” value ([2]; high-dose C-peptide) of the same compound?
**A.** −8.0 mmHg

**Q.** And the “Heart rate change, mean ± SD” value ([2]; high-dose C-peptide)?
**A.** −3.2 ± 10.0 bpm

**Q.** And the “Heart rate change, median” value ([2]; high-dose C-peptide)?
**A.** −4.0 bpm

**Q.** What about the “QTc-interval Bazett change, mean ± SD” value ([2]; high-dose C-peptide) of the same compound?
**A.** -4.5 ± 20.3 ms

**Q.** What about the “QTc-interval Bazett change, median” value ([2]; high-dose C-peptide) of the same compound?
**A.** 0.0 ms

**Q.** And the “QTc-interval Fredericia change, mean ± SD” value ([2]; high-dose C-peptide)?
**A.** -0.5 ± 16.2 ms

**Q.** What about the “QTc-interval Fredericia change, median” value ([2]; high-dose C-peptide) of the same compound?
**A.** 0.0 ms

**Q.** And the “BPd (diastolic blood pressure) change, mean ± SD” value ([2]; low-dose C-peptide)?
**A.** −2.7 ± 8.2 mmHg

**Q.** What about the “BPd (diastolic blood pressure) change, median” value ([2]; low-dose C-peptide) of the same compound?
**A.** −1.0 mmHg

**Q.** And the “BPs (systolic blood pressure) change, mean ± SD” value ([2]; low-dose C-peptide)?
**A.** −2.1 ± 12.8 mmHg

**Q.** What about the “BPs (systolic blood pressure) change, median” value ([2]; low-dose C-peptide) of the same compound?
**A.** −1.0 mmHg

**Q.** What about the “Heart rate change, mean ± SD” value ([2]; low-dose C-peptide) of the same compound?
**A.** −0.9 ± 8.2 bpm

**Q.** And the “Heart rate change, median” value ([2]; low-dose C-peptide)?
**A.** −2.0 bpm

**Q.** And the “QTc-interval Bazett change, mean ± SD” value ([2]; low-dose C-peptide)?
**A.** -0.1 ± 17.5 ms

**Q.** And the “QTc-interval Bazett change, median” value ([2]; low-dose C-peptide)?
**A.** 0.0 ms

**Q.** And the “QTc-interval Fredericia change, mean ± SD” value ([2]; low-dose C-peptide)?
**A.** 0.9 ± 14.1 ms

**Q.** And the “QTc-interval Fredericia change, median” value ([2]; low-dose C-peptide)?
**A.** 1.3 ms

**Q.** And the “Adverse drug reactions or significant changes in safety variables (blood chemistries and vital signs)” value ([3]; 500-1,500 nmoL/24 h, 6 months)?
**A.** no adverse drug reactions or significant changes in safety variables

**Q.** And the Local reactions ([3]; S.C. injection, 6 months)?
**A.** No local reactions were reported

**Q.** What about the “Deaths during the study” value ([3]; all groups) of the same compound?
**A.** No deaths

**Q.** And the “Serious adverse events (SAEs)” value ([3]; high-dose C-peptide (1,500 nmoL/24 h))?
**A.** Two

**Q.** What about the “Relationship of the SAEs to the trial medication” value ([3]; high-dose C-peptide, investigators' assessment) of the same compound?
**A.** unlikely/not related

**Q.** And the “Dizziness (SOC Injury poisoning, procedural complications), number of AEs” value [3, 5]?
**A.** 1

**Q.** What about the “Hyperaesthesia, number of AEs” value [3, 5] of the same compound?
**A.** 1

**Q.** What about the “Hyperaesthesia, number of AEs probably/possibly related to study drug” value [3, 5] of the same compound?
**A.** (1)

**Q.** What about the “Hypoglycemia, number of AEs probably/possibly related to study drug” value [3, 5] of the same compound?
**A.** (1)

**Q.** What about the “Injection site burning, number of AEs” value [3, 5] of the same compound?
**A.** 1

**Q.** And the “Injection site burning, number of AEs probably/possibly related to study drug” value [3, 5]?
**A.** (1)

**Q.** What about the “Pain in extremity (SOC Musculoskeletal and connective tissue disorder), number of AEs” value [3, 5] of the same compound?
**A.** 4

**Q.** What about the “Paraesthesia, number of AEs probably/possibly related to study drug” value [3, 5] of the same compound?
**A.** (2)

**Q.** What about the “Skin infection (SOC Infections and infestations), number of AEs” value [3, 5] of the same compound?
**A.** 1

**Q.** And the “Skin infection (SOC Skin and subcutaneous tissue disorders), number of AEs” value [3, 5]?
**A.** 2

**Q.** What about the “Tendosynovitis stenosans, number of AEs” value [3, 5] of the same compound?
**A.** 1

**Q.** And the “Total number of AEs” value [3, 5]?
**A.** 156

**Q.** And the “Total number of AEs probably/possibly related to study drug” value [3, 5]?
**A.** (5)

**Q.** And the “AEs of moderate intensity” value ([3]; high-dose group)?
**A.** 43 AEs

**Q.** And the “AEs of severe intensity” value ([3]; high-dose group)?
**A.** 9 AEs

**Q.** And the “AEs reported as possible/probable related to the study drug” value ([3]; high-dose group)?
**A.** 5 AEs

**Q.** And the “Number of AEs reported” value ([3]; high-dose group, n=52, ITT)?
**A.** 154 AEs

**Q.** And the “Patients with AEs” value ([3]; high-dose group, out of 52)?
**A.** 44 patients

**Q.** And the “Cardiac arrhythmia (SVES), number of AEs” value [3, 6]?
**A.** 1

**Q.** What about the “Dizziness (SOC Nervous system disorders), number of AEs” value [3, 6] of the same compound?
**A.** 2

**Q.** And the “Elevated serum creatinine, number of AEs” value [3, 6]?
**A.** 1

**Q.** And the “Hepatic enzyme increase, number of AEs probably/possibly related to study drug” value [3, 6]?
**A.** (1)

**Q.** What about the “Hyperglycemia, number of AEs probably/possibly related to study drug” value [3, 6] of the same compound?
**A.** (1)

**Q.** And the “Hyperthermeasthesia, number of AEs” value [3, 6]?
**A.** 2

**Q.** And the “Hyperthermeasthesia, number of AEs probably/possibly related to study drug” value [3, 6]?
**A.** (2)

**Q.** And the “Hypoglycemia, number of AEs probably/possibly related to study drug” value [3, 6]?
**A.** (1)

**Q.** What about the “Insulin sensitivity increased, number of AEs” value [3, 6] of the same compound?
**A.** 1

**Q.** What about the “Insulin sensitivity increased, number of AEs probably/possibly related to study drug” value [3, 6] of the same compound?
**A.** (1)

**Q.** And the “Musculoskeletal chest pain, number of AEs” value [3, 6]?
**A.** 1

**Q.** And the “Pain in extremity (SOC Musculoskeletal and connective tissue disorder), number of AEs” value [3, 6]?
**A.** 3

**Q.** And the “Pain in extremity (SOC Musculoskeletal and connective tissue disorder), number of AEs probably/possibly related to study drug” value [3, 6]?
**A.** (1)

**Q.** What about the “Paraesthesia, number of AEs probably/possibly related to study drug” value [3, 6] of the same compound?
**A.** (1)

**Q.** What about the “Skin infection (SOC Infections and infestations), number of AEs” value [3, 6] of the same compound?
**A.** 5

**Q.** And the “Tachycardia (stress related), number of AEs” value [3, 6]?
**A.** 1

**Q.** What about the “Total number of AEs” value [3, 6] of the same compound?
**A.** 173

**Q.** And the “Total number of AEs probably/possibly related to study drug” value [3, 6]?
**A.** (8)

**Q.** What about the “AEs of moderate intensity” value ([3]; low-dose group) of the same compound?
**A.** 51 AEs

**Q.** What about the “AEs of severe intensity” value ([3]; low-dose group) of the same compound?
**A.** 1 AEs

**Q.** What about the “AEs reported as possible/probable related to the study drug” value ([3]; low-dose group) of the same compound?
**A.** 8 AEs

**Q.** What about the “Number of AEs reported” value ([3]; low-dose group, n=56, ITT) of the same compound?
**A.** 173 AEs

**Q.** What about the “Patients with AEs” value ([3]; low-dose group, out of 56) of the same compound?
**A.** 48 patients

**Q.** What about the “Accumulation following repeated dosing” value [4] of the same compound?
**A.** no significant accumulation

Reference: patent US20110190192A1, “METHODS FOR TREATING ERECTILE DYSFUNCTION IN PATIENTS WITH INSULIN-DEPENDENT DIABETES” (Cebix Inc., priority 2009, published 2011)
